In patent US11466034B2, “Compound functioning as bromodomain protein inhibitor, and composition” (Betta Pharmaceuticals Co., Ltd., priority 2017, dated 2022):

How the values were obtained:
BRD4(D1) = BRD4(D1) (Homo sapiens (Human), UniProt O60885); test: Inhibitory activity against BRD4(D1), HTRF assay; assay type: binding
Description: (§1) (+)-JQ1 was used as comparison compound, to evaluated the inhibitory activity of compounds of the invention against BRD4(D1) and BRD4(D2) in vitro.
(§2) The assays of BRD4 (D1) and BRD4 (D2) were conducted in a 384-well polystyrene plate. The test compounds were first serially diluted in DMSO and the test compound/DMSO were transferred to 384-well plates. The final concentration of DMSO in the assay was 0.1%. 2 volumes of protein/peptide mixture were added into 384-well plates, then 2 volumes of assay mixture were added, and shake for 30 s. The plate was incubated at room temperature for 2 h. Then the HTRF signal on EnVision was readed.
(§3) Use equation (1) to fit the date in Excel to obtain the value of the inhibition rate. Inhibition rate (%)=(maximum value−signal value)/(maximum value−minimum value)*100 Equation(1):
(§4) IC50 determination was performed by fitting the data using GraphPad Prism 5.0 software and equation (2). Y=bottom+(Top−bottom)/(1+10^((Log IC50−X)*HillSlope)); Equation(2): wherein, Y represents the percentage of inhibition (%); X represents the concentration of test compounds.
(§5) The IC50 data of the examples were provided in the following table, wherein, A stands for IC50<100 nM; B stands for IC50 is 100-300 nM; C stands for IC50>300 nM.

BRD4(D2) = BRD4(D2) (Homo sapiens (Human), UniProt O60885); test: Inhibitory activity against BRD4(D2), HTRF assay; assay type: binding
Description: as §1, §2, §3, §4, §5

[1] = Pharmacokinetic assay in male SD rats, single gavage; assay type: in vivo; details: Sprague-Dawley (SD), rat, plasma
Description: Male SD rats were offered by Beijing Vital River Laboratory Animal Technology Co., Ltd., the rats were divided into groups of 3, and the suspension of the test sample (5 mg/kg-20 mg/kg) was given by single gavage. The animals were fasted overnight before the experiment, the fasting time was from 10 hours before the administration to 4 hours after the administration. Blood was collected at 0.25, 0.5, 1, 2, 4, 7, and 24 hours after administration. Blood was collected from fundus venous plexus, and placed in EDTA-K2 anticoagulation tube. The sample was centrifuged at 4° C. and 4000 rpm for 10 min, the plasma was transferred into centrifuge tubes and the compound to be test was extracted by protein precipitation, the extract was analyzed by LC-MS/MS.

[2] = Stability test of Compound 19 crystalline form I (XRD); assay type: physicochemical

| Structure (SMILES) | IC50 (BRD4(D1); numeric values) | IC50 (BRD4(D2); numeric values) | AUC(0-t) ([1]; oral dose 10 mg/kg) | Cmax ([1]; oral dose 10 mg/kg) | half-life ([1]; oral dose 10 mg/kg) | IC50 (BRD4(D1); class symbols) | IC50 (BRD4(D2); class symbols) | also measured |
| --- | --- | --- | --- | --- | --- | --- | --- | --- |
| Cc1nc2ncc(-c3cn(C)c(=O)c4[nH]ccc34)nc2n1Cc1ccc(C(F)(F)F)cc1 [Example 19, 6-methyl-4-(2-methyl-1-(4-(trifluoromethyl)benzyl)-1H-imidazo[4,5-b]pyrazin-6-yl)-1H-pyrrolo[2,3-c]pyridin-7(6H)-one] | 9.1 nM | 1.6 nM | 9430 ng·h/mL | 730 ng/mL | 4.5 h |  |  |  |
| Cc1nc2ncc(-c3cn(C)c(=O)c4[nH]ccc34)nc2n1Cc1ccc(Cl)cc1 [Example 18, 4-(1-(4-chlorobenzyl)-2-methyl-1H-imidazo[4,5-b]pyrazin-6-yl)-6-methyl-1H-pyrrolo[2,3-c]pyridin-7(6H)-one] |  |  | 2290 ng·h/mL | 224 ng/mL | 3.4 h |  |  |  |
| Cc1nc2ncc(-c3cn(C)c(=O)c4[nH]ccc34)nc2n1Cc1ccc(C(F)(F)F)cc1 [Crystalline Form I of compound 19, 6-methyl-4-(2-methyl-1-(4-(trifluoromethyl)benzyl)-1H-imidazo[4,5-b]pyrazin-6-yl)-1H-pyrrolo[2,3-c]pyridin-7(6H)-one] |  |  |  |  |  |  |  | solid form stability (XRD) ([2]; 25° C.-60% RH for 10 days): no solid form change; solid form stability (XRD) ([2]; 40° C.-75% RH for 14 days): no solid form change; solid form stability (XRD) ([2]; dried at 80° C. for 24 hours): no solid form change |
| Cn1cc(-c2cnc3cnn(Cc4ccc(Cl)cc4)c3c2)c2cc[nH]c2c1=O [Example 39, 4-(1-(4-chlorobenzyl)-1H-pyrazolo[4,3-b]pyridin-6-yl)-6-methyl-1,6-dihydro-7H-pyrrolo[2,3-c]pyridin-7-one] | 21.2 nM | 7.9 nM | 24000 ng·h/mL | 1700 ng/mL | 4.1 h |  |  |  |
| CCS(=O)(=O)Nc1cc(-c2cn(C)c(=O)c3[nH]ccc23)nc2c1ncn2Cc1ccc(F)cc1F [Example 59, N-(3-(2,4-difluorobenzyl)-5-(6-methyl-7-oxo-6,7-dihydro-1H-pyrrolo[2,3-c]pyridin-4-yl)-3H-imidazo[4,5-b]pyridin-7-yl)ethanesulfonamide] | 1.2 nM | 0.5 nM |  |  |  |  |  | AUC(0-t) ([1]; oral dose 5 mg/kg): 10200 ng·h/mL; Cmax ([1]; oral dose 5 mg/kg): 3290 ng/mL; half-life ([1]; oral dose 5 mg/kg): 2.3 h |
| CCS(=O)(=O)Nc1cc(-c2cn(C)c(=O)c3[nH]ccc23)nc2c1ncn2Cc1ccc(C(F)(F)F)cc1 [Example 58, N-(5-(6-methyl-7-oxo-6,7-dihydro-1H-pyrrolo[2,3-c]pyridin-4-yl)-3-(4-(trifluoromethyl)benzyl)-3H-imidazo[4,5-b]pyridin-7-yl)ethanesulfonamide] | 1.6 nM | 0.5 nM | 5100 ng·h/mL | 1960 ng/mL | 2.3 h |  |  |  |
| Cc1nc2ncc(-c3cn(C)c(=O)c4[nH]ccc34)nc2n1Cc1cccc(C(F)(F)F)c1 [Example 23, 4-(1-(3-trifluoromethylbenzyl)-2-methyl-1H-imidazo[4,5-b]pyrazin-6-yl)-6-methyl-1H-pyrrolo[2,3-c]pyridin-7(6H)-one] |  |  | 2830 ng·h/mL | 407 ng/mL | 3.3 h | < 100 nM | < 100 nM |  |
| CCS(=O)(=O)Nc1cc(-c2cn(C)c(=O)c3[nH]ccc23)nc2c1nc(C)n2Cc1ccc(F)cc1F [Example 64, N-(3-(2,4-difluorobenzyl)-2-methyl-5-(6-methyl-7-oxo-6,7-dihydro-1H-pyrrolo[2,3-c]pyridin-4-yl)-3H-imidazo[4,5-b]pyridin-7-yl)ethanesulfonamide] | 1.1 nM | 0.5 nM |  |  |  |  |  | AUC(0-t) ([1]; oral dose 6.7 mg/kg): 5590 ng·h/mL; Cmax ([1]; oral dose 6.7 mg/kg): 1480 ng/mL; half-life ([1]; oral dose 6.7 mg/kg): 3.5 h |
| Cc1nc2ncc(-c3cn(C)c(=O)c4[nH]ccc34)nc2n1Cc1cc(F)cc(C(F)(F)F)c1 [Example 25, 4-(1-(3-fluoro-5-trifluoromethylbenzyl)-2-methyl-1H-imidazo[4,5-b]pyrazin-6-yl)-6-methyl-1H-pyrrolo[2,3-c]pyridin-7(6H)-one] |  |  |  |  |  | < 100 nM | < 100 nM | AUC(0-t) ([1]; oral dose 20 mg/kg): 13500 ng·h/mL; Cmax ([1]; oral dose 20 mg/kg): 1230 ng/mL; half-life ([1]; oral dose 20 mg/kg): 12.1 h |
| Cc1nc2ncc(-c3cn(C)c(=O)c4[nH]ccc34)cc2n1Cc1ccccc1 [Example 6, 4-(1-benzyl-2-methyl-1H-imidazo[4,5-b]pyridin-6-yl)-6-methyl-1H-pyrrolo[2,3-c]pyrid in-7(6H)one] | 7.6 nM | 2.8 nM |  |  |  |  |  |  |
| CCS(=O)(=O)Nc1cc(-c2cn(C)c(=O)c3[nH]ccc23)cc2c1nc(C)n2Cc1ccc(Cl)cc1F [Example 49, N-(2-methyl-6-(6-methyl-7-oxo-6,7-dihydro-1H-pyrrolo[2,3-c]pyridin-4-yl)-1-(2-fluoro-4-chlorobenzyl)-1H-benzo[d]imidazol-4-yl)ethanesulfonamide] |  |  |  |  |  | < 100 nM | < 100 nM |  |
| Cc1[nH]c2ncc(-c3cn(C)c(=O)c4[nH]ccc34)cc2c1C(C)c1c(Cl)ccc(F)c1Cl (stereo not drawn) [Example 35, 4-(3-(1-(2,6-dichloro-3-fluorophenyl)ethyl)-2-methyl-1H-pyrrolo[2,3-b]pyridin-5-yl)-6-methyl-1,6-dihydro-7H-pyrrolo[2,3-c]pyridin-7-one] | 45.1 nM | 5.3 nM |  |  |  |  |  |  |
| CCS(=O)(=O)Nc1cc(-c2cn(C)c(=O)c3[nH]ccc23)cc2c1nc(C)n2Cc1ccc(C(F)(F)F)cc1 [Example 42, N-(2-methyl-6-(6-methyl-7-oxo-6,7-dihydro-1H-pyrrolo[2,3-c]pyridin-4-yl)-1-(4-(trifluoromethyl)benzyl)-1H-benzo[d]imidazol-4-yl)ethanesulfonamide] |  |  |  |  |  | < 100 nM | < 100 nM |  |
| Cc1nc2ncc(-c3cn(C)c(=O)c4[nH]ccc34)nc2n1Cc1ccc(F)cc1F [Example 31, 4-(1-(2,4-difluorobenzyl)-2-methyl-1H-imidazo[4,5-b]pyrazin-6-yl)-6-methyl-1H-pyrrolo[2,3-c]pyridin-7(6H)-one] |  |  |  |  |  | < 100 nM | < 100 nM |  |
| Cc1nc2ncc(-c3cn(Cc4cccnc4)c(=O)c4[nH]ccc34)cc2n1Cc1ccc(Cl)cc1 [Example 17, 4-(1-(4-chlorobenzyl)-2-methyl-1H-imidazo[4,5-b]pyridin-6-yl)-6-(pyridin-3-ylmethyl)-1,6-dihydro-7H-pyrrolo[2,3-c]pyridin-7-one] |  |  |  |  |  | > 300 nM | > 300 nM |  |
| Cc1nc2ncc(-c3cn(C)c(=O)c4[nH]ccc34)nc2n1Cc1ccc(Cl)c(C(F)(F)F)c1 [Example 27, 4-(1-(3-trifluoromethyl-4-chlorobenzyl)-2-methyl-1H-imidazo[4,5-b]pyrazin-6-yl)-6-methyl-1H-pyrrolo[2,3-c]pyridin-7(6H)-one] |  |  | 8500 ng·h/mL | 1000 ng/mL | 3.8 h | < 100 nM | < 100 nM |  |
| CCS(=O)(=O)Nc1cc(-c2cn(C)c(=O)c3[nH]ccc23)cc2c1nc(C)n2Cc1ccc(S(C)(=O)=O)cc1 [Example 56, N-(2-methyl-6-(6-methyl-7-oxo-6,7-dihydro-1H-pyrrolo[2,3-c]pyridin-4-yl)-1-(4-(methylsulfonyl)benzyl)-1H-benzo[d]imidazol-4-yl)ethanesulfonamide] |  |  |  |  |  | < 100 nM | < 100 nM |  |
| CCS(=O)(=O)Nc1cc(-c2cn(C)c(=O)c3[nH]ccc23)nc2c1nc(C)n2Cc1ccccc1C(F)(F)F [Example 66, N-(2-methyl-5-(6-methyl-7-oxo-6,7-dihydro-1H-pyrrolo[2,3-c]pyridin-4-yl)-3-(2-(trifluoromethyl)benzyl)-3H-imidazo[4,5-b]pyridin-7-yl)ethanesulfonamide] |  |  |  |  |  | < 100 nM | < 100 nM |  |
| CCS(=O)(=O)Nc1cc(-c2cn(C)c(=O)c3[nH]ccc23)cc2c1nc(C)n2Cc1cccc(C(F)(F)F)c1 [Example 46, N-(2-methyl-6-(6-methyl-7-oxo-6,7-dihydro-1H-pyrrolo[2,3-c]pyridin-4-yl)-1-(3-(trifluoromethyl)benzyl)-1H-benzo[d]imidazol-4-yl)ethanesulfonamide] |  |  |  |  |  | < 100 nM | < 100 nM |  |
| CCn1cc(-c2cnc3nc(C)n(Cc4ccc(OC)cc4)c3c2)c2cc[nH]c2c1=O [Example 12, 6-ethyl-4-(1-(4-methoxybenzyl)-2-methyl-1H-imidazo[4,5-b]pyridin-6-yl)-1,6-dihydro-7H-pyrrolo[2,3-c]pyridin-7-one] |  |  |  |  |  | 100 to 300 nM | 100 to 300 nM |  |
